Laboratory results as given in patent US11319295B2, “Substituted phenyloxetane and phenyltetrahydrofuran compounds as indoleamine 2,3-dioxygenase (IDO) inhibitors” (MERCK SHARP & DOHME CORP., priority 2017, dated 2022).
Where two headings read alike, the source gives them in different places.

Columns and labels:
TDO = TDO (Homo sapiens, UniProt P48775)
Protocol: TDO Cellular Assay in Frozen SW48 Cells
SW48 cells were cultured in complete RPMI culture medium (90% RPMI, 10% heat-inactivated fetal bovine serum).
SW48 and A2780 cells were dispensed to the respective wells of 384-well assay plates containing the compounds. The plates were incubated for about 48 hours at a 37° C., 5% CO2 incubator. Afterwards, 12 μL of 0.5 M ethyl isonipecotate (Sigma Aldrich, Cat #E33505) in dimethyl sulfoxide were added into each well and the plates were sealed and incubated at 37° C. without CO2 overnight. The plates were centrifuged for 1 minute at 200×g. The resulting fluorescence was measured in a Spectramax plate reader (Molecular Devices) with a 400 nm excitation filter and a 510 nm emission filter.
The fluorescence intensity of each well was corrected for the background observed in wells with A2780 cells and was expressed as a fraction of the intensity observed in wells of SW48 cells and DMSO only. Potencies were calculated by linear least squares fit to the four parameter logistic IC50 equation.

IDO1 [1] = molecular target: T1, IDO1 (Homo sapiens, UniProt P14902); test: IDO1 Cellular Assay in Hela Cells Stimulated with IFNγ; conditions: Hela IC50 (nM), Hela cells stimulated with IFNγ 100 ng/mL, 300 uM L-tryptophan, about 48 hours; form screened: Neutral
Protocol: Hela cells were cultured in complete Hela culture medium (90% EMEM, 10% heat-inactivated fetal bovine serum) and expanded to about 1×10^9 cells. The cells were then collected and frozen down at 1×10^7 cells/vial in 1 mL frozen medium (90% complete Hela culture medium, 10% DMSO)
Compounds to be tested were serially diluted in ten 3-fold steps in DMSO starting from 10 mM DMSO stocks in Echo low volume plate(s).
Hela cells with and without IFNγ were dispensed to the respective wells of 384-well assay plates containing the compounds. The plates were incubated for about 48 hours at a 37° C., 5% CO2 incubator. Afterwards, 12 mL of 0.5 M methyl isonipecotate in dimethyl sulfoxide were added into each well and the plates were sealed and incubated at 37° C. without CO2 overnight. The plates were centrifuged for 1 min at 200×g. The resulting fluorescence was measured in a Spectramax plate reader (Molecular Devices) with a 400 nm excitation filter and a 510 nm emission filter.
Potencies were calculated by linear least squares fit to the four parameter logistic IC50 equation.

IDO1 [2] = molecular target: T1, IDO1; test: IDO1 Human Whole Blood Assay; format: cell-based; parameters: Human whole blood was drawn in sodium heparin coated tubes from healthy internal donors; from tissue; host or cells: human whole blood from healthy donors, stimulated with LPS and IFNγ; conditions: LPS and IFNγ 100 ng/mL, 18 h, kynurenine by LC/MS/MS, form screened: Neutral
Protocol: IDO1 Human Whole Blood Assay
LPS and IFNγ was prepared in RPMI to a 10× of final conc. (1000 ng/mL), final concentration is 100 ng/mL.
Human whole blood was drawn in sodium heparin coated tubes from healthy internal donors. […] of blood was transferred to each of the wells of a v-bottom 96 well plate. […] of compound was transferred from intermediate dilution plate, and incubated for 15 min. 30 μL from stimulants was then transferred to blood and mixed thoroughly. Plate was covered with breathable membrane and incubated at 37° C. for overnight (18 h).
On day 2 isotope labeled standard of kynurenine and tryptophan was made in water at 10× concentration and […] was added to the blood at […] final concentration. The assay plates were centrifuged at 300×G for 10 min with no brake to separate plasma from red blood cells. […] of plasma samples was removed without disturbing red blood cells. Plasma was diluted with RPMI in 1:1 ratio and proteins were precipitated out with two volume of Acetonitrile. The plates was centrifuged at 4000×G for 60 min. 20 mL of supernatant was carefully transferred to a 384 well plate contain 40 mL of 0.1% formic acid in water and analyzed by LC/MS/MS.
LC/MS/MS analyses were performed using Thermo Fisher's LX4-TSQ Quantum Ultra system. This system consists of four Agilent binary high-performance liquid chromatography (HPLC) pumps and a TSQ Quantum Ultra triple quadruple MS/MS instrument. For each sample, […] were injected onto an Atlantis T3 column (2.1 mm×150 mm, […]) from Waters. The mobile phase gradient pumped at 0.8 mL/min was used to elute the analytes from the column at 25° C. […] Mobile phase A consisted of 0.1% formic acid in water. Mobile phase B consisted of 0.1% of formic acid in acetonitrile. Data was acquired in positive mode using a HESI interface. […] Compounds were titrated and IC50's were calculated by 4 parameter sigmoidal curve fitting formula.

[3] = read-out: SW48 IC50, SW48 cells, 300 uM L-tryptophan, about 48 hours, form screened: Neutral

T1 sequence (P14902 whole entry): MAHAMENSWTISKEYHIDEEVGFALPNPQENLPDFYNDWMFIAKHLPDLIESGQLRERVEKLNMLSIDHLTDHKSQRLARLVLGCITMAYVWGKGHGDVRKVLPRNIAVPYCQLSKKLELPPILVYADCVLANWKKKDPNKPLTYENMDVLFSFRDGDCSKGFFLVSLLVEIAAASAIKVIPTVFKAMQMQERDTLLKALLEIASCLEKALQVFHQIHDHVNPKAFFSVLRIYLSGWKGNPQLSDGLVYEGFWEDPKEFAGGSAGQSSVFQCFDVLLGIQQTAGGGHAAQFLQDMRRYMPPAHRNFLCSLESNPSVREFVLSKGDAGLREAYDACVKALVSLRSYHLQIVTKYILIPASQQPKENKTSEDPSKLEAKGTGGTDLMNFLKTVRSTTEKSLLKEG
Sequence of TDO (P48775 whole entry): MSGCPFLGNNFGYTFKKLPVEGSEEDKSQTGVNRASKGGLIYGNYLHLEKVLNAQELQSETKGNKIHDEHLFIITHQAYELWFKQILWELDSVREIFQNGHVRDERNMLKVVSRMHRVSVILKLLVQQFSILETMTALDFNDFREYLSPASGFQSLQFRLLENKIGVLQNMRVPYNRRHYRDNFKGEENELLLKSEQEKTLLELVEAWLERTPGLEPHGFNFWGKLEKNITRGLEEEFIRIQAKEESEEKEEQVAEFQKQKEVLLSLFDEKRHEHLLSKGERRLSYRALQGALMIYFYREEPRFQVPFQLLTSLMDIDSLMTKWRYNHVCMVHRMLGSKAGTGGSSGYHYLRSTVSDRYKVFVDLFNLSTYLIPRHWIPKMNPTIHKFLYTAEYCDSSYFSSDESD

Row | IC50 (TDO) [µM] | IC50 (IDO1 [1]) [nM] | IC50 (TDO; [3]) [µM] | IC50 (IDO1 [2]) [nM] | SMILES
1 | ≥ 10 | 85 | – | – | CC1CC1NC(=O)C1(c2ccc(NC(=O)c3cccc(Cl)c3)cc2)COC1 (single isomer, unassigned) [Example 8, 3-{4-[(3-chlrobenzene-1-carbonyl)amino]phenyl}-N-(2-methylcyclo-propyl)oxetane-3-carboxamide]
2 | – | 352 | ≥ 10 | – | CC1CC1NC(=O)C1(c2ccc(NC(=O)c3cccc(Cl)c3)cc2)COC1 (single isomer, unassigned) [Example 10, 3-{4-[(3-chlorobenzene-1-carbonyl)amino]phenyl}-N-(2-methylcyclo-propyl)oxetane-3-carboxamide]
3 | – | 216 | ≥ 10 | – | CC1CC1NC(=O)C1(c2ccc(NC(=O)c3cccc(Cl)c3)cc2)COC1 (single isomer, unassigned) [Example 9, 3-{4-[(3-chlorobenzene-1-carbonyl)amino]phenyl}-N-(2-methylcyclo-propyl)oxetane-3-carboxamide]
4 | – | 6 | – | – | Cc1cc(C2(C(=O)Nc3ccc(F)cc3)COC2)ncc1NC(=O)c1cccc(Cl)c1 [Example 17, 3-{5-[(3-chlorobenzene-1-carbonyl)amino]-4-methylpyridin-2-yl}-N-(4-fluorophenyl)oxetane-3-carboxamide]
5 | ≥ 10 | 3 | – | – | O=C(Nc1ccc(C2(C(=O)Nc3ccc(F)cc3)COC2)cc1)c1cccc(Cl)c1F [Example 3, 3-{4-[(3-chloro-2-fluorobenzene-1-carbonyl)amino]phenyl}-N-(4-fluorophenyl)oxetane-3-carboxamide]
6 | ≥ 10 | 56 | – | – | O=C(Nc1ccc(C2(C(=O)NCC3CC3)COC2)cc1)c1cccc(Cl)c1 [Example 7, 3-{4-[(3-chlorobenzene-1-carbonyl)amino]phenyl}-N-(cyclopropyl-methyl)oxetane-3-carboxamide]
7 | – | 205 | – | – | Cc1cc(NC(=O)c2cccc(Cl)c2)cnc1C1(C(=O)Nc2ccc(F)cc2)COC1 [Example 19, 3-{5-[(3-chlorobenzene-1-carbonyl)amino]-3-methylpyridin-2-yl}-N-(4-fluorophenyl)oxetane-3-carboxamide]
8 | ≥ 10 | 51 | – | – | O=C(Nc1ccc(C2(C(=O)NCCC(F)(F)F)COC2)cc1)c1cccc(Cl)c1 [Example 6, 3-{4-[(3-chlorobenzene-1-carbonyl)amino]phenyl}-N-(3,3,3-trifluoropropyl)oxetane-3-carboxamide]
9 | – | 58 | – | – | Cc1cc(C2(C(=O)Nc3ccc(F)cc3)COC2)ncc1NC(=O)c1cccc(C#N)c1 [Example 18, 3-{5-[(3-cyanobenzene-1-carbonyl)amino]-4-methylpyridin-2-yl}-N-(4-fluorophenyl)oxetane-3-carboxamide]
10 | – | 25 | – | 1530 | CCCNC(=O)C1(c2ccc(NC(=O)c3cccc(Cl)c3)cc2)COC1 [Example 5, 3-{4-[(3-chlorobenzene-1-carbonyl)amino]phenyl}-N-propyloxetane-3-carboxamide]
11 | – | 12 | ≥ 10 | 324 | CC1CC1NC(=O)C1(c2ccc(NC(=O)c3cccc(Cl)c3)cc2)COC1 (single isomer, unassigned) [Example 4, 3-{4-[(3-chlorobenzene-1-carbonyl)amino]phenyl}-N-(2-methylcyclopropyl)oxetane-3-carboxamide]
12 | – | 3 | – | 438 | N#Cc1cccc(C(=O)Nc2ccc(C3(C(=O)Nc4ccc(F)cc4)COC3)nc2)c1 [Example 20, 3-{5-[(3-cyanobenzene-1-carbonyl)amino]pyridin-2-yl}-N-(4-fluorophenyl)oxetane-3-carboxamide]
